Test results published in US4694008A, “Chemical compounds” (Smith Kline & French Laboratories Limited, priority 1984, dated 1987).

What was measured:
[1] = tested on: histamine H2 -receptors; assay: inhibition of histamine-induced tachycardia in the isolated guinea pig right atrium
From the text: (§1) The measurement of inhibition of histamine-stimulated secretion of gastric acid from the lumen-perfused stomachs of rats anaesthetised with urethane, and the measurement of inhibition of histamine-induced tachycardia in the isolated guinea pig right atrium, are detailed in U.S. Pat. No. 4,385,058.

[2] = biological target: T1, histamine H2 -receptors (Rattus norvegicus, UniProt P25102); assay: inhibition of histamine-stimulated secretion of gastric acid, lumen-perfused stomachs of rats anaesthetised with urethane; type: in vivo; conditions: iv, read-out: ED50 values in the lumen-perfused rat test
T1 construct: histamine-stimulated secretion of gastric acid from the lumen-perfused stomachs of rats anaesthetised with urethane; from tissue; host or cells: stomach of the anaesthetised rat (in vivo, lumen-perfused)
From the text: These are actions of histamine which, according to Ash and Schild, Brit. J. Pharmac. Chemother. 27 247 (1966), are not mediated by histamine H1 -receptors.
as §1

T1 sequence (P25102 whole entry, the tested form may be a part): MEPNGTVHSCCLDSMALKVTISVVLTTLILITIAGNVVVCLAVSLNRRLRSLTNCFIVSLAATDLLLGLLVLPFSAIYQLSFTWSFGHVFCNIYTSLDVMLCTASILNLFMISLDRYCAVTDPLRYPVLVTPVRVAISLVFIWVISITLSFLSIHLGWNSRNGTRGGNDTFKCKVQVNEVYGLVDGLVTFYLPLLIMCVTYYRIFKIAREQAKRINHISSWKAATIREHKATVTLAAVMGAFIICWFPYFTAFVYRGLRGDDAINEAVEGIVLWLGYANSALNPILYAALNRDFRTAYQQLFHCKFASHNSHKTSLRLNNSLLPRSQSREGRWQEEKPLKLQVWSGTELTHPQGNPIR

Compound	pA2 values in the guinea pig atrium test [1]	ED50 [2] [µmol/kg]
O=c1[nH]c(CCCOc2cccc(CN3CCCCC3)c2)ncc1OCc1ccccc1 [Example 1, 2-[3-[3-(Piperidinomethyl)phenoxy]propyl]-5-benzyloxypyrimidin-4-one]	more than seven	< 0.1
COc1cnc(NCCCOc2cccc(CN3CCCCC3)c2)[nH]c1=O [Example 5, 2-[3-[3-(Piperidinomethyl)phenoxy]propylamino]-5-methoxypyrimidin-4-one]	more than seven	< 0.1
